Experimental data reported in patent US20130338106A1, “COMPOUNDS INHIBITING LEUCINE-RICH REPEAT KINASE ENZYME ACTIVITY” (priority 2011, published 2013).

target: T1, LRRK2 G2019S mutant kinase (Homo sapiens, UniProt Q5S007, G2019S); experiment: LRRK2 G2019S LanthaScreen TR-FRET kinase assay; assay type: biochemical; conditions: LRRK2 G2019S GST-tagged protein, 100 μM ATP, LRRKtide substrate; read-out: IC50 (potency)
T1 construct: GST; purchased Invitrogen PV4882
Summary of the method: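 GST-tagged enzyme with 75 nM fluorescein-ERM (LRRKtide) substrate, 100 μM ATP, 2 mM DTT, 1% DMSO final; 1 h at room temperature. Stopped with EDTA and Tb-anti-pERM antibody, 30 min, then TR-FRET read (ex 340, em 520/495 nm); IC50 and maximal inhibition derived.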

T1 sequence (Q5S007 whole entry G2019S): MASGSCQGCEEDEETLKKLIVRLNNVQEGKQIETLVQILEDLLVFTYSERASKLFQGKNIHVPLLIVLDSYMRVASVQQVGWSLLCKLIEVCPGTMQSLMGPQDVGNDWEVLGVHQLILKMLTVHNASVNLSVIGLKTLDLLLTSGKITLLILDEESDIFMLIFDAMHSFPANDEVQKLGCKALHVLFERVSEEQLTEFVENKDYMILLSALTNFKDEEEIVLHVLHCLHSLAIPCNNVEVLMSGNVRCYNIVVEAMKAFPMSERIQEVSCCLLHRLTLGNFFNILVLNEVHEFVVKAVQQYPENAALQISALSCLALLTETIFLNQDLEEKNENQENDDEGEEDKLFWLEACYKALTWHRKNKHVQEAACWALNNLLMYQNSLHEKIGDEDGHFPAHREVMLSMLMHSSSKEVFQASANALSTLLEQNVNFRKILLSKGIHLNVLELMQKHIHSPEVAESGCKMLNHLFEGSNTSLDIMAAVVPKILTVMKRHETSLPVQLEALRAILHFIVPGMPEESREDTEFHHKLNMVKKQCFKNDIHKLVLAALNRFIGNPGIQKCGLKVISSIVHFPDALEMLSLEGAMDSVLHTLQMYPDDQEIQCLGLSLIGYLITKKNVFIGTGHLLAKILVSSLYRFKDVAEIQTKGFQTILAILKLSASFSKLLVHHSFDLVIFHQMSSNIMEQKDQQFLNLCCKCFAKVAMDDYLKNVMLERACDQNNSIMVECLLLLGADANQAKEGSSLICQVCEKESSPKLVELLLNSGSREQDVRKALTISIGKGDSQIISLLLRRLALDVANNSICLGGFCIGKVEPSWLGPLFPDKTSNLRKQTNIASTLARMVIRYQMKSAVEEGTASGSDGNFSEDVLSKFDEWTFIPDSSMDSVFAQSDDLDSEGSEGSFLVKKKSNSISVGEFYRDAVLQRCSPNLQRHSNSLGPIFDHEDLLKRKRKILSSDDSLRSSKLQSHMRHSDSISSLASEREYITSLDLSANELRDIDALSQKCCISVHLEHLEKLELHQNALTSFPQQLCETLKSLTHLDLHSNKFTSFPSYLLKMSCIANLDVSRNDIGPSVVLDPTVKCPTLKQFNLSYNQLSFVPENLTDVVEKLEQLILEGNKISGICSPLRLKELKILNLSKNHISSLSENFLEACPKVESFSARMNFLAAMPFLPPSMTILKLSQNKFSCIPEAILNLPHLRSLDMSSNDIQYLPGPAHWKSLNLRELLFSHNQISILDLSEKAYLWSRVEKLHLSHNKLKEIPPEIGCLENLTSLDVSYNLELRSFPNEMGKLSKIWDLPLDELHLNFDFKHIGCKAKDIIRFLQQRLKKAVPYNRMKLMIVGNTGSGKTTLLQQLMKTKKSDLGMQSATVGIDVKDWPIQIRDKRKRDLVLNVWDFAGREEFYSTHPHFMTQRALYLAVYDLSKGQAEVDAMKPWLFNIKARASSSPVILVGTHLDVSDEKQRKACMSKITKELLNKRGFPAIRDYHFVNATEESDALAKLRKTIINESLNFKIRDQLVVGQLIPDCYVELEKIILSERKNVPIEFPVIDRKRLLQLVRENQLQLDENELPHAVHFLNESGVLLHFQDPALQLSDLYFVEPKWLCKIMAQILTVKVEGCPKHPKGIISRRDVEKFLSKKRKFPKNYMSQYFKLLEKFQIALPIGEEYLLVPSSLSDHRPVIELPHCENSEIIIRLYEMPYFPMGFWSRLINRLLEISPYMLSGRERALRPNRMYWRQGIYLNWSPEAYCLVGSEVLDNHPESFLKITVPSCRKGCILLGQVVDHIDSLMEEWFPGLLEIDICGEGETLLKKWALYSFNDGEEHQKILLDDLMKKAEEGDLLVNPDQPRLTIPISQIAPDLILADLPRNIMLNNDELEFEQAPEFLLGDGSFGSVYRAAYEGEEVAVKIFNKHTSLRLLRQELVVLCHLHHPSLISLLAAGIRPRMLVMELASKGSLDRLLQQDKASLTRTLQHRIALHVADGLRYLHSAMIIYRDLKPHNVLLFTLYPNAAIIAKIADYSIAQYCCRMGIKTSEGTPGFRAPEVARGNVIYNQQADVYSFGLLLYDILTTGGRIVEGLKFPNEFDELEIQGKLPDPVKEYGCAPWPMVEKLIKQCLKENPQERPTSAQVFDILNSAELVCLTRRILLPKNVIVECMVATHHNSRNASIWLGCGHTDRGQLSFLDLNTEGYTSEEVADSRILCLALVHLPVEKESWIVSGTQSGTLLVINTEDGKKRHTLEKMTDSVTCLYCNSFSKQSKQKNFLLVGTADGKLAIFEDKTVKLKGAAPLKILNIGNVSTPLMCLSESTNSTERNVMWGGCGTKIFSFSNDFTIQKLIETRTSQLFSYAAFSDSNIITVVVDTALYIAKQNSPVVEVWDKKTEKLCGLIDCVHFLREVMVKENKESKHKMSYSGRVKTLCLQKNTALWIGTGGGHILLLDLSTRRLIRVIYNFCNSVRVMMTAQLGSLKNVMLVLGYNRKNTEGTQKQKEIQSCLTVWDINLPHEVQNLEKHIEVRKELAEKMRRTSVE

Going from `CC1(C)CC(=O)c2c(NC3CCCC3)sc(-c3cc[nH]n3)c2C1` [Example 49, 3-(Cyclopentylamino)-6,6-dimethyl-1-(1H-pyrazol-3-yl)-6,7-dihydro-2-benzothiophen-4(5H)-one] to `CC1(C)CC(=O)c2c(NC3CC3)sc(-c3cc[nH]n3)c2C1` [Example 46, 3-(Cyclopropylamino)-6,6-dimethyl-1-(1H-pyrazol-3-yl)-6,7-dihydro-2-benzothiophen-4(5H)-one], the IC50 rises from 97 nM to 210 nM (2.2-fold).

First: CC1(C)CC(=O)c2c(NCc3ccccn3)sc(-c3cc[nH]n3)c2C1 [Example 48, 6,6-Dimethyl-1-(1H-pyrazol-3-yl)-3-[(pyridin-2-ylmethyl)amino]-6,7-dihydro-2-benzothiophen-4(5H)-one]
Second: CC(C)Nc1sc(-c2cc[nH]n2)c2c1C(=O)CC(C)(C)C2 [Example 37, 6,6-Dimethyl-3-(propan-2-ylamino)-1-(1H-pyrazol-3-yl)-6,7-dihydro-2-benzothiophen-4(5H)-one]
The IC50 of the first is 3.4-fold higher: 620 nM for the first, 180 nM for the second. The second is the more potent here.

Compared with `CC(O)CSc1sc(-c2cc[nH]n2)c2c1C(=O)CC(C)(C)C2` (stereo not shown) [Example 16, 3-[(2-Hydroxypropyl)sulfanyl]-6,6-dimethyl-1-(1H-pyrazol-3-yl)-6,7-dihydro-2-benzothiophen-4(5H)-one], `CC1(C)CC(=O)c2c(SCC(O)CO)sc(-c3cc[nH]n3)c2C1` (stereo not shown) [Example 25, 3-[(2,3-Dihydroxypropyl)sulfanyl]-6,6-dimethyl-1-(1H-pyrazol-3-yl)-6,7-dihydro-2-benzothiophen-4(5H)-one] is 3.4-fold higher in IC50: 220 nM for the first, 740 nM for the second.

Going from `CC1(C)CC(=O)c2c(SC3CCCC3)sc(-c3ccn(C(=O)Nc4cccc(C#N)c4)n3)c2C1` [Example 68, N-(3-Cyanophenyl)-3-[3-(cyclopentylsulfanyl)-6,6-dimethyl-4-oxo-4,5,6,7-tetrahydro-2-benzothiophen-1-yl]-1H-pyrazole-1-carboxamide] to `CC1(C)CC(=O)c2c(SC3CCCC3)sc(-c3ccn(C(=O)Nc4cccc(Cl)c4)n3)c2C1` [Example 67, N-(3-Chlorophenyl)-3-[3-(cyclopentylsulfanyl)-6,6-dimethyl-4-oxo-4,5,6,7-tetrahydro-2-benzothiophen-1-yl]-1H-pyrazole-1-carboxamide], the IC50 rises from 130 nM to 330 nM (2.5-fold). The first is the more potent here.

Going from `COc1ccccc1NC(=O)n1ccc(-c2sc(SC3CCCC3)c3c2CC(C)(C)CC3=O)n1` [Example 66, 3-[3-(Cyclopentylsulfanyl)-6,6-dimethyl-4-oxo-4,5,6,7-tetrahydro-2-benzothiophen-1-yl]-N-(2-methoxyphenyl)-1H-pyrazole-1-carboxamide] to `CC1(C)CC(=O)c2c(SC3CCCC3)sc(-c3ccn(C(=O)NCc4ccccc4)n3)c2C1` [Example 60, N-benzyl-3-[3-(Cyclopentylsulfanyl)-6,6-dimethyl-4-oxo-4,5,6,7-tetrahydro-2-benzothiophen-1-yl]-1H-pyrazole-1-carboxamide], the IC50 rises from 110 nM to 520 nM (4.7-fold). The first is the more potent here.

Compared with `O=C1CCCc2c(-c3ccn(C(=O)Nc4ccc(Cl)cc4)n3)sc(SC3CCCC3)c21` [Example 86, N-(4-chlorophenyl)-3-[3-(cyclopentylsulfanyl)-4-oxo-4,5,6,7-tetrahydro-2-benzothiophen-1-yl]-1H-pyrazole-1-carboxamide], `CC1(C)CC(=O)c2c(SC3CCCC3)sc(-c3ccn(C(=O)Cc4ccc(Cl)cc4)n3)c2C1` [Example 79, 1-{1-[(4-Chlorophenyl)acetyl]-1H-pyrazol-3-yl}-3-(cyclopentylsulfanyl)-6,6-dimethyl-6,7-dihydro-2-benzothiophen-4(5H)-one] is 9.1-fold higher in IC50: 66 nM for the first, 600 nM for the second.

Going from `Cc1nnc(Sc2sc(-c3cc[nH]n3)c3c2C(=O)CC(C)(C)C3)s1` [Example 32, 6,6-Dimethyl-3-[(5-methyl-1,3,4-thiadiazol-2-yl)sulfanyl]-1-(1H-pyrazol-3-yl)-6,7-dihydro-2-benzothiophen-4(5H)-one] to `CCCc1sc(-c2cc[nH]n2)c2c1C(=O)CC(C)(C)C2` [Example 56, 6,6-Dimethyl-3-propyl-1-(1H-pyrazol-3-yl)-6,7-dihydro-2-benzothiophen-4(5H)-one], the IC50 falls from 4000 nM to 2200 nM (1.8-fold).

First: CC1(C)CC(=O)c2c(SC3CCCC3)sc(-c3ccn(C(=O)C4CCCCC4)n3)c2C1 [Example 83, 1-[1-(Cyclohexylcarbonyl)-1H-pyrazol-3-yl]-3-(cyclopentylsulfanyl)-6,6-dimethyl-6,7-dihydro-2-benzothiophen-4(5H)-one]
Second: CC1(C)CC(=O)c2c(NCCN3CCOCC3)sc(-c3cc[nH]n3)c2C1 [Example 45, 6,6-Dimethyl-3-{[2-(morpholin-4-yl)ethyl]amino}-1-(1H-pyrazol-3-yl)-6,7-dihydro-2-benzothiophen-4(5H)-one]
The IC50 of the first is 16-fold higher: 4000 nM for the first, 250 nM for the second. The second is the more potent here.
